Laboratory results reported in ChEMBL document CHEMBL1201862, “PubChem BioAssay data set” (2004).
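Five compound concentrations were applied to cells in 96-well plates for 48 hours; endpoints were derived by simple linear interpolation of the resulting dose-response curve. The concentration for 50% growth inhibition is given as GI50.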 Calls of active or inactive are those of the source. Rule as the data show it: active = GI50 up to about 1.1 µM and inactive = higher.

What was measured:
Experiment in all cases: NCI tumour cell line growth inhibition, 48 h
MCF7 = system: MCF7
LOX IMVI = system: LOX IMVI
SK-OV-3 = system: SK-OV-3
MOLT-4 = system: MOLT-4
OVCAR-8 = system: OVCAR-8
786-0 = system: 786-0
IGROV-1 = system: IGROV-1
EKVX = system: EKVX
SN12C = system: SN12C
T47D = system: T47D
HOP-62 = system: HOP-62
UO-31 = system: UO-31
NCI-H460 = system: NCI-H460
COLO 205 = system: COLO 205
UACC-257 = system: UACC-257
ACHN = system: ACHN
SW-620 = system: SW-620
DU-145 = system: DU-145
SNB-75 = system: SNB-75
RXF 393 = system: RXF 393

Measured: GI50

CC(CC(=O)O)C(C(=O)O)C(=O)O (configuration not stated)
inactive: MCF7 > 100 µM | LOX IMVI > 100 µM | SK-OV-3 > 100 µM | MOLT-4 > 100 µM | OVCAR-8 > 100 µM | 786-0 > 100 µM | IGROV-1 > 100 µM | EKVX > 100 µM | SN12C > 100 µM | T47D > 100 µM | HOP-62 > 100 µM | UO-31 > 100 µM | NCI-H460 > 100 µM | COLO 205 > 100 µM | UACC-257 > 100 µM | ACHN > 100 µM | SW-620 > 100 µM | DU-145 > 100 µM | SNB-75 > 100 µM | RXF 393 > 100 µM

CSc1[nH]nc(N)c1C(=O)Nc1ccc(Cl)cc1
inactive: MCF7 84.7 µM | LOX IMVI 76.9 µM | SK-OV-3 > 100 µM | MOLT-4 51.6 µM | OVCAR-8 40.9 µM | 786-0 52.1 µM | IGROV-1 98.9 µM | EKVX > 100 µM | SN12C > 100 µM | T47D 58.1 µM | UO-31 33 µM | NCI-H460 79.4 µM | COLO 205 99.5 µM | UACC-257 > 100 µM | SW-620 57.3 µM | DU-145 68.5 µM | SNB-75 75.5 µM | RXF 393 22.9 µM

CCOc1nnnc2[nH]cnc12
inactive: MCF7 > 100 µM | LOX IMVI > 100 µM | SK-OV-3 > 100 µM | MOLT-4 > 100 µM | OVCAR-8 > 100 µM | 786-0 > 100 µM | IGROV-1 > 100 µM | EKVX > 100 µM | SN12C > 100 µM | T47D > 100 µM | HOP-62 > 100 µM | UO-31 > 100 µM | NCI-H460 > 100 µM | COLO 205 > 100 µM | UACC-257 > 100 µM | SW-620 > 100 µM | DU-145 > 100 µM | SNB-75 > 100 µM | RXF 393 > 100 µM

CCS(=O)(=O)CCn1cnc2c1c(=O)n(C)c(=O)n2C
inactive: MCF7 > 100 µM | LOX IMVI > 100 µM | MOLT-4 > 100 µM | OVCAR-8 > 100 µM | 786-0 > 100 µM | IGROV-1 > 100 µM | EKVX > 100 µM | SN12C > 100 µM | T47D > 100 µM | HOP-62 > 100 µM | UO-31 > 100 µM | NCI-H460 > 100 µM | COLO 205 > 100 µM | UACC-257 > 100 µM | ACHN > 100 µM | SW-620 > 100 µM | DU-145 > 100 µM | SNB-75 > 100 µM | RXF 393 > 100 µM

COc1ccc(/C(=N/OCCCC(=O)O)c2cccs2)cc1
inactive: MCF7 > 100 µM | LOX IMVI > 100 µM | SK-OV-3 > 100 µM | MOLT-4 > 100 µM | OVCAR-8 > 100 µM | 786-0 > 100 µM | EKVX > 100 µM | SN12C > 100 µM | T47D > 100 µM | HOP-62 > 100 µM | UO-31 > 100 µM | NCI-H460 > 100 µM | COLO 205 > 100 µM | UACC-257 > 100 µM | ACHN > 100 µM | SW-620 > 100 µM | DU-145 > 100 µM | SNB-75 > 100 µM | RXF 393 > 100 µM

C=C1CN(C(=O)c2cc3cc(OC)c(OC)c(OC)c3[nH]2)c2cc([N+](=O)[O-])ccc21
inactive: MCF7 > 100 µM | LOX IMVI > 100 µM | SK-OV-3 33.2 µM | MOLT-4 69.3 µM | OVCAR-8 > 100 µM | 786-0 30.5 µM | IGROV-1 > 100 µM | EKVX > 100 µM | SN12C > 100 µM | T47D > 100 µM | UO-31 > 100 µM | NCI-H460 > 100 µM | COLO 205 > 100 µM | UACC-257 > 100 µM | SW-620 > 100 µM | DU-145 > 100 µM | SNB-75 51.1 µM | RXF 393 14.6 µM

CC(C)(C)c1ccc(O)c(C(O)c2ccccn2)c1 (configuration not stated)
inactive: MCF7 77.8 µM | LOX IMVI 54.8 µM | MOLT-4 54.2 µM | OVCAR-8 > 100 µM | 786-0 61.8 µM | IGROV-1 > 10 µM | EKVX 54.1 µM | SN12C 74 µM | T47D 34.9 µM | HOP-62 > 100 µM | UO-31 39.7 µM | NCI-H460 48.5 µM | COLO 205 > 100 µM | ACHN > 100 µM | SW-620 > 100 µM | DU-145 > 100 µM | SNB-75 > 100 µM | RXF 393 66.8 µM

CC(NC(=O)c1c(O)[nH]c(=S)[nH]c1=O)c1ccc([N+](=O)[O-])cc1 (configuration not stated)
inactive: MCF7 71 µM | LOX IMVI 90.8 µM | SK-OV-3 > 100 µM | MOLT-4 29.1 µM | 786-0 94.6 µM | IGROV-1 > 100 µM | EKVX > 100 µM | SN12C > 100 µM | T47D 37.2 µM | HOP-62 58.3 µM | UO-31 > 100 µM | NCI-H460 > 100 µM | COLO 205 > 100 µM | UACC-257 > 100 µM | ACHN > 100 µM | SW-620 > 100 µM | DU-145 75.7 µM | SNB-75 17.9 µM | RXF 393 > 100 µM

CC(=O)CC(=O)Nc1ccc2ccccc2c1
inactive: MCF7 74.3 µM | LOX IMVI > 100 µM | SK-OV-3 > 100 µM | MOLT-4 36.7 µM | OVCAR-8 > 100 µM | 786-0 > 100 µM | IGROV-1 > 100 µM | EKVX > 100 µM | SN12C > 100 µM | T47D 40.2 µM | HOP-62 > 100 µM | NCI-H460 > 100 µM | COLO 205 35.5 µM | UACC-257 51.9 µM | ACHN > 100 µM | SW-620 > 100 µM | DU-145 > 100 µM | SNB-75 > 100 µM | RXF 393 > 100 µM

CCOc1cc(NC(C)=O)ccc1C(=O)NN1C(=O)/C(=C/c2ccc(Cl)cc2)N=C1c1ccccc1
inactive: MCF7 4.67 µM | LOX IMVI 62.7 µM | SK-OV-3 > 100 µM | MOLT-4 17.7 µM | OVCAR-8 34 µM | 786-0 74.1 µM | IGROV-1 18.1 µM | EKVX 26 µM | SN12C 70.6 µM | T47D 13.2 µM | HOP-62 44.9 µM | UO-31 34.9 µM | COLO 205 33.7 µM | UACC-257 43.9 µM | ACHN 51.1 µM | SW-620 > 100 µM | DU-145 68.5 µM | SNB-75 40.3 µM | RXF 393 33 µM

O=C(CCCN1CCc2[nH]c3cc(F)ccc3c2C1)c1ccc(F)cc1
inactive: MCF7 4.59 µM | LOX IMVI 3.95 µM | MOLT-4 13 µM | OVCAR-8 15.1 µM | 786-0 13.5 µM | IGROV-1 16.4 µM | EKVX 14.8 µM | SN12C 14.3 µM | T47D 18.9 µM | HOP-62 16.1 µM | NCI-H460 10.9 µM | COLO 205 4.84 µM | UACC-257 15.4 µM | ACHN 13.8 µM | SW-620 > 100 µM | DU-145 13.3 µM | SNB-75 11 µM | RXF 393 14.4 µM

CCOC(=O)c1ccc(C(=O)/C(C#N)=C2\CCCN2C)[nH]1
inactive: MCF7 > 100 µM | LOX IMVI > 100 µM | MOLT-4 > 100 µM | OVCAR-8 > 100 µM | 786-0 > 100 µM | IGROV-1 > 100 µM | EKVX > 100 µM | SN12C > 100 µM | T47D > 100 µM | HOP-62 > 100 µM | UO-31 > 100 µM | NCI-H460 > 100 µM | COLO 205 > 100 µM | UACC-257 > 100 µM | ACHN > 100 µM | SW-620 > 100 µM | DU-145 > 100 µM | SNB-75 > 100 µM | RXF 393 > 100 µM

CN(C)Cc1cc(C(=O)/C=C/c2ccccc2Cl)cc(CN(C)C)c1O
inactive: MCF7 9.66 µM | LOX IMVI 3.33 µM | MOLT-4 10.9 µM | OVCAR-8 10.1 µM | 786-0 7.36 µM | IGROV-1 13.6 µM | EKVX 14.7 µM | SN12C 9.16 µM | T47D > 10 µM | HOP-62 8.15 µM | UO-31 10.6 µM | NCI-H460 4.6 µM | COLO 205 4.23 µM | UACC-257 15.4 µM | ACHN 4.45 µM | SW-620 4.86 µM | DU-145 12.3 µM | SNB-75 5.51 µM | RXF 393 17.1 µM

CC1(C)N/C(=C\[N+](=O)[O-])C(C)(C)N1O
inactive: MCF7 > 10 µM | LOX IMVI > 10 µM | SK-OV-3 > 10 µM | MOLT-4 > 10 µM | OVCAR-8 > 10 µM | 786-0 > 10 µM | IGROV-1 > 10 µM | EKVX > 10 µM | SN12C > 10 µM | T47D > 10 µM | HOP-62 > 10 µM | NCI-H460 > 10 µM | COLO 205 > 10 µM | UACC-257 > 10 µM | ACHN > 10 µM | SW-620 > 10 µM | DU-145 > 10 µM | SNB-75 > 10 µM | RXF 393 > 10 µM

CN(C)CCNC(=O)c1cc(-c2nccn2C)nc2ccccc12
inactive: MCF7 70.1 µM | LOX IMVI > 100 µM | MOLT-4 > 100 µM | OVCAR-8 > 100 µM | 786-0 > 100 µM | IGROV-1 > 100 µM | EKVX > 100 µM | SN12C > 100 µM | T47D > 100 µM | HOP-62 50.8 µM | UO-31 52.8 µM | NCI-H460 34.4 µM | COLO 205 > 100 µM | UACC-257 > 100 µM | ACHN 58.3 µM | SW-620 > 100 µM | DU-145 > 100 µM | SNB-75 > 100 µM | RXF 393 45.4 µM
